Read-outs that look alike come from different tables or passages of the source. Values belong to the compound of their own block, whether it stands above or below them.
What was measured:
pyruvate dehydrogenase = details: cited from earlier work
[1] = Storage stability of magnesium R-(+)-α-lipoate at room temperature / ambient humidity
Text: Test samples of magnesium R-(+)-α-lipoate were stored at ambient temperatures for two years.

glucose assimilation = details: comparable to the effect of 200 nM insulin; cited from earlier work
[2] = test system: glucose transporters (GLUT 1 and GLUT 4); details: cited from earlier work
[3] = closed and sealed amber container, cited from earlier work
diabetic neuropathy = details: >600 mg/day; cited from earlier work
diabetic polyneuropathy = details: 3-week period; cited from earlier work
nerve function = details: 600 or 1200 mg daily, 24 months; cited from earlier work
[4] = test system: neuropathic symptoms and deficits; details: 600 mg/day over a 3-week period; cited from earlier work
[5] = test system: cardiac autonomic neuropathy; details: 800 mg daily, 4 months, diabetic patients with cardiac autonomic neuropathy; cited from earlier work
[6] = test system: neuropathy impairment score; details: 600 mg daily for 6 months, 509 patients; cited from earlier work
[7] = ambient temperatures, two years

Compound: O=C(O)CCCCC1CCSS1 (stereo not drawn) [R-(+)-α-lipoic acid]
- activity of pyruvate dehydrogenase (pyruvate dehydrogenase): increased
- visible signs of polymerization or degradation [1, 7]: clumping of the compound, development of a strong sulfur odor, and formation of small and visible gummy balls of dark yellow material
- stimulation of glucose assimilation (factor) (glucose assimilation): greater than 2
- translocation of GLUT 1 and GLUT 4 from the cytosol to the plasma membrane [2]: stimulated
- storage stability ([3]; refrigerated temperatures): must be used within a few months

- hygroscopicity ([1]; ambient environments, relative humidities as high as 75%): not hygroscopic
- physical state / appearance and properties on storage [1, 7]: did not change over time
- physical appearance and properties on storage ([1]; room temperature, relative humidities as high as 75%, one week): did not change during storage
Compound: O=C(O)CCCC[C@@H]1CCSS1 [magnesium R-(+)-α-lipoate, magnesium R-(+)-alpha-lipoate]
- chemical composition, purity and chiral purity on storage [1, 7]: did not change during storage under these conditions
- visible signs of polymerization or degradation [1, 7]: no visible signs of polymerization or degradation

Compound: O=C(O)CCCCC1CCSS1 (stereo not drawn) [α-lipoic acid, 1,2-dithiocyclopentane-3-valeric acid]
- patient symptoms (diabetic neuropathy): significantly improved patient symptoms
- sensory symptoms (Total Symptom Score) (diabetic polyneuropathy): improved sensory symptoms
- nerve function (nerve function): improved nerve function
- positive neuropathic symptoms and neuropathic deficits; safety [4]: safe and effective
- storage stability ([3]; room temperature): a year or longer
- heart rate variability [5]: significantly improved
- neuropathy impairment score [6]: improved neuropathy impairment score as early as 19 days

Compound: S-(−)-α-lipoic acid [S-(−)-α-lipoate]
- activity of pyruvate dehydrogenase (pyruvate dehydrogenase): inhibited
- stimulation of glucose assimilation (factor) (glucose assimilation): little or no change
- total content of glucose transporters [2]: appeared to lower
- translocation of GLUT 1 and GLUT 4 from the cytosol to the plasma membrane [2]: had no effect or has an inhibiting effect

Source: patent US8222432B2 (BioLink Life Sciences, Inc., priority 2008, dated 2012)
